In patent US20160113932A1, “TREATMENT OF CANCERS USING PI3 KINASE ISOFORM MODULATORS” (INFINITY PHARMACEUTICALS, INC., priority 2013, published 2016):
Values after ≈ are worked out from the molar mass of the structure shown. Values joined by “and” are separate entries in the source; they are usually repeats but may differ in a detail not shown here. Identical values can stand only once. “Also recorded” adds a separate entry of the source. Marks after values point to notes of the source that are not given here.

Legend:
[1] = Plasma protein binding in vitro, monkey; assay type: in vitro ADME; details: all concentrations tested
[2] = In vivo rat micronucleus assay
respiratory system = assay: Respiratory study in Sprague Dawley rat; assay type: in vivo; details: male rat, single oral administration up to 350 mg/kg
[3] = tested on: CD63 expression on the surface of activated CCR3+ basophils; assay: Basophil activation, ex vivo anti-FcεR1 activation assay, healthy subjects; assay type: in vivo, human; details: single dose administration
migration of CLL cells = assay: Chemotaxis assay of CLL cells; assay type: cell-based, human; details: range 2-42%; n=8
Description: (FIGS. 35 and 36). […] In addition, this direct inhibitory effect on CLL cells in the lymph nodes could lead to rapid and prolonged responses in cancer patients.

[4] = tested on: pAKT and Ki-67 expression in primary CLL cells; assay: CLL cell proliferation with CD40L/IL-2/IL-10, four color FACS; assay type: cell-based; details: Homo sapiens, primary CLL cells stimulated with CD40L/IL-2/IL-10, n=2, read-out: EC50, inhibition of pAKT and Ki-67 expression
Procedure: Generally, CLL cells were seeded and incubated with proliferation cocktail (containing sCD40L, rH-IL 10 and rH-IL 2) in media. Then, four color FACS analysis was performed using antibodies to pAKT, Ki-67, CD19 and CD5.

[5] = Tissue distribution of radiolabelled Compound 292 in rat; assay type: in vivo
Human T-cell = Human T-cell proliferation; assay type: cell-based
[6] = Clinical pharmacokinetics after 25 mg or 75 mg BID administration; assay type: in vivo, human
Pfeiffer = assay: DLBCL cellular growth inhibition assay; assay type: cell-based; details: Homo sapiens
PI3K δ = PI3K δ (Homo sapiens, UniProt O00329); assay: PI3K-δ suppression level (IC90) quoted with clinical plasma concentrations
hERG channel current = hERG channel current (Homo sapiens, UniProt Q12809); assay: In vitro hERG assay; details: hERG IC50 fit
[7] = Plasma protein binding in vitro, rat; assay type: in vitro ADME; details: all concentrations tested
Toledo = assay: DLBCL cellular growth inhibition assay; assay type: cell-based; details: Homo sapiens
HuT78 = assay: CTCL cytotoxicity, 72 hours; assay type: cell-based; details: HuT78 cells
Procedure: (§1) MJ and HuT78 cells were grown in IMDM 20% FBS, and HH cells were grown in RPMI 10% FBS.

MJ = assay: CTCL cytotoxicity, 72 hours; assay type: cell-based; details: MJ cells
Procedure: as §1

HH = assay: CTCL cytotoxicity, 72 hours; assay type: cell-based; details: HH cells, vs MJ or HuT78
Procedure: as §1

[8] = Phase 1 study in healthy subjects: safety and tolerability; assay type: in vivo
Procedure: Serial ECGs were performed at multiple time points after dosing in all study groups.
In addition, a rapid response was observed, assessed as reduction in CD63^+ expression on CCR3^+ basophils in an ex vivo anti-FcεR1 activation assay (FIG. 1-3). […] CD63^+ expression returned to baseline as plasma drug concentrations declined. […] The most common non-procedural AEs occurring in ≧2 subjects were headache (8% vs. 25% PLB), myalgia (6% vs. 8% PLB), and nasopharyngitis (6% vs. 0% PLB). […] No clinical significant findings in safety lab studies of ECGs were observed.

[9] = tested on: PI3K-δ specific basophil activation; assay: Anti-fCER1 BAT: PI3K-δ specific basophil activation in human whole blood; assay type: cell-based; details: read-out: Anti-fCER1 BAT (delta) EC50
[10] = tested on: advanced hematologic malignancies; assay: Phase 1 dose-escalation study in advanced hematologic malignancies: clinical response; assay type: in vivo, human
[11] = Absolute bioavailability / pharmacokinetics in Beagle dogs; assay type: in vivo; details: Dog, PO, 5 mg/kg
[12] = multiple doses for 2 weeks (n=36)
[13] = CLL/SLL, 16 treated, 11 evaluable
[14] = T-Cell Lymphoma, 7 treated, 6 evaluable

Chain of hERG channel current (Q12809 whole entry): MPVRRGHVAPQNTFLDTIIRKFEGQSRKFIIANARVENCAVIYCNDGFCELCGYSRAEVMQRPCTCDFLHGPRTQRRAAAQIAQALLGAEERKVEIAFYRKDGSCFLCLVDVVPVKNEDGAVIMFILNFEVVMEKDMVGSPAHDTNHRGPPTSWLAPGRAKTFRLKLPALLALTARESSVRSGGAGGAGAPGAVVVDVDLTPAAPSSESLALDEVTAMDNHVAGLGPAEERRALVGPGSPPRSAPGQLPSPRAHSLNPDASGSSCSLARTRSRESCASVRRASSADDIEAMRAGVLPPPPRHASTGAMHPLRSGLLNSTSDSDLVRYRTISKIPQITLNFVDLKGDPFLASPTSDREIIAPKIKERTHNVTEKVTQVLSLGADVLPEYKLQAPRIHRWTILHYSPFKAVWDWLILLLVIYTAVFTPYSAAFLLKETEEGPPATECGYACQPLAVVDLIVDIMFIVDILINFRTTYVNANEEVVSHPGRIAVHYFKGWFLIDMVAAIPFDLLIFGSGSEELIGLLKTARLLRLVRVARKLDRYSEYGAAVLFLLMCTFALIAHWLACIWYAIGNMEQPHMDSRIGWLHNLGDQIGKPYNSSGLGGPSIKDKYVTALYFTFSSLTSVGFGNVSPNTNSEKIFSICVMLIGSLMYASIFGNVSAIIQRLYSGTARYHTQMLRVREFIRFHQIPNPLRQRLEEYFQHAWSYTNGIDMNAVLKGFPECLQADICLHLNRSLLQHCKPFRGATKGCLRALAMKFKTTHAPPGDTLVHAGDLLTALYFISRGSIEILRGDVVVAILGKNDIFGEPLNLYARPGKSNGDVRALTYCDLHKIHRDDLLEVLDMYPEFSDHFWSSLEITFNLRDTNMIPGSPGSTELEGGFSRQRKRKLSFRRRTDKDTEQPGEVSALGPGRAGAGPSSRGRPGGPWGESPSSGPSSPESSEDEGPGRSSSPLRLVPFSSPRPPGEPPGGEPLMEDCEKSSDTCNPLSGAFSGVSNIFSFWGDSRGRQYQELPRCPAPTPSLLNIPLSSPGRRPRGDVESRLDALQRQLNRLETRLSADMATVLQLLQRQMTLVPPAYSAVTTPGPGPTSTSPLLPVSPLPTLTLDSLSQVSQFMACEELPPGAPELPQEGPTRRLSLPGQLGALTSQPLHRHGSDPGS
Chain of PI3K δ (O00329 whole entry, species assumed): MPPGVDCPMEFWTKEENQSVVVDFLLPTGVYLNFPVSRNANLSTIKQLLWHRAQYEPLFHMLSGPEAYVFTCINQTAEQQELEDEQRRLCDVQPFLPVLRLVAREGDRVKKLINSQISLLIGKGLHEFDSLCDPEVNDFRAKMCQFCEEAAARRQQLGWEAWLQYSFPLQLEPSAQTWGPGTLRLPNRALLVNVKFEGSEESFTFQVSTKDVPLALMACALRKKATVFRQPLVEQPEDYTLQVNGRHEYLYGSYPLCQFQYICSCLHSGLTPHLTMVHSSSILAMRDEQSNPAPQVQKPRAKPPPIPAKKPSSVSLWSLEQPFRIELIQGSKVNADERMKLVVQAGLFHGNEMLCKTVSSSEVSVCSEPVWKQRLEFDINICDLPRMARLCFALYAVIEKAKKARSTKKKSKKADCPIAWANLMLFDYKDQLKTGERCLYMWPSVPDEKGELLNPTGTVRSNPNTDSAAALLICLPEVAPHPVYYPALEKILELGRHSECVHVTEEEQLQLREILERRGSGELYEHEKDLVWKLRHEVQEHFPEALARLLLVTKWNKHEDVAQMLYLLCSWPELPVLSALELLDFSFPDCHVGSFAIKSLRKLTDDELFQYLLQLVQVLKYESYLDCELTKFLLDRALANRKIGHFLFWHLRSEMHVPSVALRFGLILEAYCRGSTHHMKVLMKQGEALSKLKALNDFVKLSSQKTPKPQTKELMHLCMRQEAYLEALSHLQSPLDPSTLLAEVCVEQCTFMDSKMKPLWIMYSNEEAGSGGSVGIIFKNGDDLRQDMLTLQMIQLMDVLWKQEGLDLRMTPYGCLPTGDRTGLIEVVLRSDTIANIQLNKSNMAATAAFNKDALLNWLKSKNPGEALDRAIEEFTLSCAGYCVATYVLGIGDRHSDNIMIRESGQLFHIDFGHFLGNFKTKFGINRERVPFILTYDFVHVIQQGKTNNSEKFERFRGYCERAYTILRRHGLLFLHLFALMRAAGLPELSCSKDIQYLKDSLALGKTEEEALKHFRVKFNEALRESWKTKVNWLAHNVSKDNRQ
Chain of PI3K δ (P27986 whole entry partner, species assumed): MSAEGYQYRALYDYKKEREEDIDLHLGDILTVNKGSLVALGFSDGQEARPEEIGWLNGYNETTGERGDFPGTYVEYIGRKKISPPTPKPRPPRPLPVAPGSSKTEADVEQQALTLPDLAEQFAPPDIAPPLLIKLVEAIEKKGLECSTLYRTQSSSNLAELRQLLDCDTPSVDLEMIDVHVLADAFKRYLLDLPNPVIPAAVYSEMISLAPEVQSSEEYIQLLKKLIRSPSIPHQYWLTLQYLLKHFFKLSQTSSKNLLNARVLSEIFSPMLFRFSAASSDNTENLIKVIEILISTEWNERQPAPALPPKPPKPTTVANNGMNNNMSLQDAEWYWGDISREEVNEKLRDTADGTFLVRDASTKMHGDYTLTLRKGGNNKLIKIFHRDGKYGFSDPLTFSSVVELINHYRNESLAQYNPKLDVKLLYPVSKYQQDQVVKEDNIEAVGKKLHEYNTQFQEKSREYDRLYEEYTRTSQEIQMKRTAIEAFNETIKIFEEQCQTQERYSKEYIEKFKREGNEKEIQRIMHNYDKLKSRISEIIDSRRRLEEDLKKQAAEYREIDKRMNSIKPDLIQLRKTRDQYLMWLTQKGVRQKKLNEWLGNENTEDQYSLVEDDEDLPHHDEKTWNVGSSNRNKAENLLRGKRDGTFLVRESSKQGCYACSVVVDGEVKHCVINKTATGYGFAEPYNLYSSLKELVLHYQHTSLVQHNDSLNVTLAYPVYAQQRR

## C[C@H](Nc1ncnc2[nH]cnc12)c1cc2cccc(Cl)c2c(=O)n1-c1ccccc1 [Compound 292]
[1]
  percent free in plasma compared with human plasma: consistently higher
[2]
  adverse effect in micronucleus assay: no direct adverse effect
Respiratory system
  effects on respiratory parameters (respiratory rate, tidal volume, minute volume): no Compound 292-related effects
[3]
  dose at which maximal PD response was achieved: 5 mg
Migration of CLL cells
  reduction in migration of CLL cells, % control reduction, median: 23%
[4]
  EC50: < 10 nM
[5]
  distribution into rat tissues: rapid and extensive
[5]; majority of tissues without quantifiable radioactivity at 24 hr
  elimination of radiolabelled Compound 292 from tissues: rapid
Human T-cell
  EC50: 5 to 10 nM
[6]; 25 mg BID
  mean predose steady state plasma concentration: about 390 ng/ml
[6]; 25 mg or 75 mg BID
  time of maximal plasma concentrations following dosing: around 1 hour
[6]; doses through 75 mg BID
  AUC versus dose: increases proportionally with doses
[6]; human, plasma, oral, both 25 mg and 75 mg BID, read-out: elimination half-life
  half-life: 4 to 5 h
Pfeiffer
  IC50: > 50000 nM
PI3K δ
  IC90: 0.361 µg/mL (≈ 0.866 µM)
hERG channel current
  Hill coefficient: 1.3
[7]
  percent free in plasma compared with human plasma: consistently higher
Toledo
  IC50: > 50000 nM
HuT78
  cytotoxicity, sensitivity: medium sensitivity
MJ
  cytotoxicity, sensitivity: resistant
HH
  cytotoxicity, sensitivity: more sensitive
[8]; healthy subjects
  IgE: No increases in IgE
[8]; healthy subjects, serial ECGs
  QTcF at any assessment: ≤ 500 ms
[8]; healthy subjects, single doses up to 30 mg, multiple doses up to 10 mg daily for 14 days
  tolerability: well tolerated; also recorded: well-tolerated
[8]; [12]
  headache, subjects: 8%
  myalgia, subjects: 6%
  nasopharyngitis, subjects: 6%
[9]
  EC50: 10 to 100 nM
[10]; B cell lymphoma, 16 out of 18 responders
  responders responding by first assessment (within about 2 months): 89%
[10]; [13]
  Best Observed Response: CR: 0 n
  Best Observed Response: PR: 6 n
  Time to Response, Median (range): 2.9 (1.8, 5.6) Months
[10]; CLL/SLL, 16 treated, 11 evaluable, four nodal responses
  Best Observed Response: SD: 4 ^c n
[10]; CTCL, T/E 10/4
  Best Observed Response: CR: 0 n
  Best Observed Response: SD: 2 n
  Median Time to Response (range): 1.7 (—) ^ Months
[10]; HL, 3 treated, 2 evaluable
  Best Observed Response: PR: 0 n
  Best Observed Response: SD: 0 n
  Time to Response, Median (range): 1.7 (1.7, 1.7) Months
[10]; HL, T/E 3/3 (Table 16)
  Best Observed Response: CR: 1 (33) n(%)
  Best Observed Response: Overall: 1 (33) n(%)
  Best Observed Response: PD: 1 (33) n(%)
  Best Observed Response: PR: 0 n(%)
  Best Observed Response: SD: 1 (33) n(%)
  Median Time to Rsp (Range): 1.7 Months
[10]; MCL, 4 treated, 3 evaluable
  Best Observed Response: CR: 0 n
  Best Observed Response: PR: 2 n
  Best Observed Response: SD: 0 n
  Time to Response, Median (range): 1.9 (1.9, 1.9) Months
[10]; MCL, 11 evaluable patients, 8, 15 and 25 mg BID
  responses: 1/1
[10]; MCL, T/E 9/6 (Table 16)
  Best Observed Response: CR: 1 (17) n(%)
  Best Observed Response: Overall: 4 (67) n(%)
  Best Observed Response: PD: 1 (17) n(%)
  Best Observed Response: PR: 3 (50) n(%)
  Best Observed Response: SD: 1 (17) n(%)
  Median Time to Rsp (Range): 1.8 (1.6-1.9) Months
[10]; MM, 3 treated, 3 evaluable
  Best Observed Response: CR: 0 n
  Best Observed Response: PD: 2 n
  Best Observed Response: PR: 0 n
[10]; PTCL, T/E 7/5
  Best Observed Response: PD: 3 n
  Best Observed Response: SD: 0 n
  Median Time to Response (range): 2.3 (1.9-2.7) Months
[10]; T cell lymphoma (2 PTCL and 1 CTCL), CT scans
  patients with at least 50% tumor response: 33 % of the patients
[10]; [14]
  Best Observed Response: PD: 3 n
  Time to Response, Median (range): 2.4 (1.8, 3.1) Months
[10]; TCL Total, T/E 17/9 (Table 15)
  Best Observed Response: PD: 4 n
  Best Observed Response: PR: 2 n
  Best Observed Response: SD: 2 n
  Median Time to Response (range): 1.9 (1.7-2.7) Months
[10]; aNHL, 5 treated, 3 evaluable
  Best Observed Response: CR: 0 n
  Best Observed Response: PD: 2 n
  Best Observed Response: PR: 0 n
[10]; aNHL, T/E 13/10 (Table 16)
  Best Observed Response: CR: 0 n(%)
  Best Observed Response: Overall: 0 n(%)
  Best Observed Response: PD: 6 (60) n(%)
  Best Observed Response: PR: 0 n(%)
  Best Observed Response: SD: 4 (40) n(%)
[10]; iNHL, 17 treated, 13 evaluable
  Best Observed Response: PR: 7 n
  Time to Response, Median (range): 1.8 (1.7, 2.8) Months
[10]; iNHL, T/E 26/19 (Table 16)
  Best Observed Response: CR: 3 (16) n(%)
  Best Observed Response: MR (Minor Response for Waldenstrom's): 1 (5) n(%)
  Best Observed Response: Overall: 13 (68) n(%)
  Best Observed Response: PD: 2 (11) n(%)
  Best Observed Response: PR: 10 (53) n(%)
  Best Observed Response: SD: 3 (16) n(%)
  Median Time to Rsp (Range): 1.8 (1.7-4.1) Months
[11]; calculated using 0.5 mg/kg IV dose as reference and AUC0-last
  Foral: 97g'i %
[11]; calculated using 1 mg/kg IV dose as reference and AUC0-last
  Foral: 40% and 40h'i %
